Experimental data taken from ChEMBL document CHEMBL3763031, “Design, synthesis and biological evaluation of monobactams as antibacterial agents against gram-negative bacteria” (2016).
Values after ≈ are worked out from the molar mass of the structure shown.

How the values were obtained:
Citrobacter freundii = assay: Antibacterial activity against beta-lactamase producing Citrobacter freundii 43864 after 18 hrs by agar dilution assay; format: functional; conditions: Citrobacter freundii, 43864, 18 h
Pseudomonas aeruginosa [1] = assay: Antibacterial activity against BL positive Pseudomonas aeruginosa 27853 after 18 hrs by agar dilution assay; format: functional; conditions: Pseudomonas aeruginosa, 27853, 18 h
Klebsiella aerogenes = assay: Antibacterial activity against beta-lactamase producing Enterobacter aerogenes 45102 after 18 hrs by agar dilution assay; format: functional; conditions: Klebsiella aerogenes, 45102, 18 h
Klebsiella pneumoniae [2] = assay: Antibacterial activity against ESBL positive Klebsiella pneumoniae 09-25 after 18 hrs by agar dilution assay; format: functional; conditions: 09-25, 18 h
Klebsiella pneumoniae [3] = assay: Antibacterial activity against ESBL positive Klebsiella pneumoniae 700603 after 18 hrs by agar dilution assay; format: functional; conditions: Klebsiella pneumoniae, 700603, 18 h
Providencia rettgeri = assay: Antibacterial activity against Providencia rettgeri 31052 after 18 hrs by agar dilution assay; format: functional; conditions: Providencia rettgeri, 31052, 18 h
Proteus mirabilis = assay: Antibacterial activity against beta-lactamase producing Proteus mirabilis 09-1 after 18 hrs by agar dilution assay; format: functional; conditions: 09-1, 18 h
Klebsiella pneumoniae [4] = assay: Antibacterial activity against NDM-1 positive Klebsiella pneumoniae BAA-2146 after 18 hrs by agar dilution assay; format: functional; conditions: BAA-2146, 18 h
Klebsiella pneumoniae [5] = assay: Antibacterial activity against ESBL negative Klebsiella pneumoniae 09-8 after 18 hrs by agar dilution assay; format: functional; conditions: 09-8, 18 h
Pseudomonas aeruginosa [6] = assay: Antibacterial activity against BL positive Pseudomonas aeruginosa 09-14 after 18 hrs by agar dilution assay; format: functional; conditions: 09-14, 18 h
Klebsiella pneumoniae [7] = assay: Antibacterial activity against ESBL negative Klebsiella pneumoniae 7 after 18 hrs by agar dilution assay; format: functional; conditions: Klebsiella pneumoniae, 7, 18 h
Escherichia coli [8] = assay: Antibacterial activity against ESBL positive Escherichia coli 09-1 after 18 hrs by agar dilution assay; format: functional; conditions: 09-1, 18 h
Escherichia coli [9] = assay: Antibacterial activity against ESBL negative Escherichia coli 09-20 after 18 hrs by agar dilution assay; format: functional; conditions: 09-20, 18 h
Salmonella typhi = assay: Antibacterial activity against beta-lactamase producing Salmonella typhi H901 after 18 hrs by agar dilution assay; format: functional, Salmonella enterica subsp. enterica serovar Typhi; conditions: Salmonella enterica, H901, 18 h
Escherichia coli [10] = assay: Antibacterial activity against ESBL negative Escherichia coli 1515 after 18 hrs by agar dilution assay; format: functional; conditions: Escherichia coli, 1515, 18 h
Morganella morganii = assay: Antibacterial activity against beta-lactamase producing Morganella morganii 25830 after 18 hrs by agar dilution assay; format: functional; conditions: Morganella morganii, 25830, 18 h
Proteus vulgaris = assay: Antibacterial activity against beta-lactamase producing Proteus vulgaris 29905 after 18 hrs by agar dilution assay; format: functional; conditions: Proteus vulgaris, 29905, 18 h
Pseudomonas aeruginosa [11] = assay: Antibacterial activity against BL positive Pseudomonas aeruginosa PAO1 after 18 hrs by agar dilution assay; format: functional; conditions: PAO1, 18 h
Serratia marcescens = assay: Antibacterial activity against beta-lactamase producing Serratia marcescens 41002 after 18 hrs by agar dilution assay; format: functional; conditions: Serratia marcescens, 41002, 18 h
Escherichia coli [12] = assay: Antibacterial activity against ESBL negative Escherichia coli 25922 after 18 hrs by agar dilution assay; format: functional; conditions: Escherichia coli, 25922, 18 h
Enterobacter cloacae = assay: Antibacterial activity against beta-lactamase producing Enterobacter cloacae 45301 after 18 hrs by agar dilution assay; format: functional; conditions: Enterobacter cloacae, 45301, 18 h
Escherichia coli [13] = assay: Antibacterial activity against acrAB and acrEF knock-out Escherichia coli BL21 by microbroth dilution assay; format: functional
Escherichia coli [14] = assay: Antibacterial activity against Escherichia coli BL21 by microbroth dilution assay; format: functional

Row | SMILES | MIC (Citrobacter freundii) | MIC (Pseudomonas aeruginosa [1]) | MIC (Klebsiella aerogenes) | MIC (Klebsiella pneumoniae [2]) | MIC (Klebsiella pneumoniae [3]) | MIC (Providencia rettgeri) | MIC (Proteus mirabilis) | MIC (Klebsiella pneumoniae [4]) | MIC (Klebsiella pneumoniae [5]) | MIC (Pseudomonas aeruginosa [6]) | MIC (Klebsiella pneumoniae [7]) | MIC (Escherichia coli [8]) | MIC (Escherichia coli [9]) | MIC (Salmonella typhi) | MIC (Escherichia coli [10]) | MIC (Morganella morganii) | MIC (Proteus vulgaris) | MIC (Pseudomonas aeruginosa [11]) | MIC (Serratia marcescens) | MIC (Escherichia coli [12]) | further results
1 | CC1(C)[C@H](NC(=O)/C(=N\OCc2ccccc2)c2csc(N)n2)C(=O)N1S(=O)(=O)O | > 64 µg/mL | > 64 µg/mL | > 64 µg/mL | > 64 µg/mL | > 64 µg/mL | > 64 µg/mL | > 64 µg/mL | > 64 µg/mL | > 64 µg/mL | > 64 µg/mL | > 64 µg/mL | > 64 µg/mL | > 64 µg/mL | > 64 µg/mL | > 64 µg/mL | > 64 µg/mL | > 64 µg/mL | > 64 µg/mL | > 64 µg/mL | > 64 µg/mL | MIC (Enterobacter cloacae): > 64 µg/mL
2 | CCN(CC)CC.Cc1ccc(O)c(/C=N/NC(=O)c2ccc(CO/N=C(\C(=O)N[C@@H]3C(=O)N(S(=O)(=O)O)[C@H]3C)c3csc(N)n3)cc2)c1 (relative stereo) | 8 µg/mL | 32 µg/mL | 8 µg/mL | > 64 µg/mL | 64 µg/mL | 0.06 µg/mL | 2 µg/mL | > 64 µg/mL | 32 µg/mL | 32 µg/mL | 2 µg/mL | 64 µg/mL | 64 µg/mL | 8 µg/mL | 0.25 µg/mL | 0.12 µg/mL | 1 µg/mL | 32 µg/mL | 8 µg/mL | 8 µg/mL | MIC (Enterobacter cloacae): 4 µg/mL
3 | CCN(CC)CC.C[C@H]1[C@H](NC(=O)/C(=N\OCc2ccc(C(=O)N/N=C/c3ccc4ccccc4c3O)cc2)c2csc(N)n2)C(=O)N1S(=O)(=O)O | 8 µg/mL | 16 µg/mL | 8 µg/mL | > 64 µg/mL | > 64 µg/mL | ≤ 0.03 µg/mL | 1 µg/mL | > 64 µg/mL | 32 µg/mL | 16 µg/mL | 2 µg/mL | 64 µg/mL | 64 µg/mL | 8 µg/mL | 0.25 µg/mL | 0.06 µg/mL | 1 µg/mL | 16 µg/mL | 8 µg/mL | 4 µg/mL | MIC (Enterobacter cloacae): 4 µg/mL
4 | Cn1cc(CO/N=C(\C(=O)N[C@@H]2C(=O)N(S(=O)(=O)O)C2(C)C)c2csc(N)n2)nn1 | 4 µg/mL (≈ 8.72 µM) | > 64 µg/mL | 8 µg/mL (≈ 17.4 µM) | 8 µg/mL (≈ 17.4 µM) | > 64 µg/mL | 0.06 µg/mL (≈ 0.131 µM) | 2 µg/mL (≈ 4.36 µM) | 64 µg/mL (≈ 140 µM) | 8 µg/mL (≈ 17.4 µM) | > 64 µg/mL | 2 µg/mL (≈ 4.36 µM) | 2 µg/mL (≈ 4.36 µM) | 8 µg/mL (≈ 17.4 µM) | > 64 µg/mL | 4 µg/mL (≈ 8.72 µM) | 0.125 µg/mL (≈ 0.273 µM) | 0.125 µg/mL (≈ 0.273 µM) | > 64 µg/mL | 8 µg/mL (≈ 17.4 µM) | 4 µg/mL (≈ 8.72 µM) | MIC (Enterobacter cloacae): 2 µg/mL (≈ 4.36 µM)
5 | C[C@H]1[C@H](NC(=O)/C(=N\OC(C)(C)C(=O)O)c2csc(N)n2)C(=O)N1S(=O)(=O)O [AZTREONAM] | 0.125 µg/mL (≈ 0.287 µM) | 2 µg/mL (≈ 4.59 µM) | ≤ 0.03 µg/mL | 32 µg/mL (≈ 73.5 µM) | 32 µg/mL (≈ 73.5 µM) | ≤ 0.03 µg/mL | ≤ 0.03 µg/mL | 256 µg/mL (≈ 588 µM) | 16 µg/mL (≈ 36.7 µM) | 4 µg/mL (≈ 9.19 µM) | ≤ 0.03 µg/mL | 8 µg/mL (≈ 18.4 µM) | > 256 µg/mL | ≤ 0.03 µg/mL | 0.125 µg/mL (≈ 0.287 µM) | 0.125 µg/mL (≈ 0.287 µM) | ≤ 0.03 µg/mL | 0.5 µg/mL (≈ 1.15 µM) | 0.125 µg/mL (≈ 0.287 µM) | 0.125 µg/mL (≈ 0.287 µM) | 
6 | CC1(C)[C@H](NC(=O)/C(=N\OCc2cn(CC3CC3)nn2)c2csc(N)n2)C(=O)N1S(=O)(=O)O | 8 µg/mL (≈ 16 µM) | > 64 µg/mL | 32 µg/mL (≈ 64.2 µM) | 32 µg/mL (≈ 64.2 µM) | > 64 µg/mL | ≤ 0.03 µg/mL | > 64 µg/mL | 64 µg/mL (≈ 128 µM) | 16 µg/mL (≈ 32.1 µM) | > 64 µg/mL | 16 µg/mL (≈ 32.1 µM) | 16 µg/mL (≈ 32.1 µM) | 16 µg/mL (≈ 32.1 µM) | 64 µg/mL (≈ 128 µM) | 16 µg/mL (≈ 32.1 µM) | > 64 µg/mL | 1 µg/mL (≈ 2.01 µM) | > 64 µg/mL | 32 µg/mL (≈ 64.2 µM) | 16 µg/mL (≈ 32.1 µM) | MIC (Enterobacter cloacae): 8 µg/mL (≈ 16 µM)
7 | CN(C)[C@@H]1C(O)=C(C(N)=O)C(=O)[C@@]2(O)C(O)=C3C(=O)c4c(O)cccc4[C@@](C)(O)[C@H]3C[C@@H]12 [TETRACYCLINE] |  |  |  |  |  |  |  |  |  |  |  |  |  |  |  |  |  |  |  |  | MIC (Escherichia coli [13]): 0.25 µg/mL (≈ 0.563 µM); MIC (Escherichia coli [14]): 0.5 µg/mL (≈ 1.13 µM)
